Source: US4265904A, “Prostacyclin analogs of the 1 series and related analogs” (American Cyanamid Company, priority 1979, dated 1981)

What was measured:
Assay type in all cases: in vivo, guinea pigs
[1] = tested on: bronchospasms elicited by 5-hydroxytryptamine; test: Bronchodilator activity against bronchospasm elicited by intravenous 5-hydroxytryptamine, Konzett procedure; conditions: Cavia porcellus; guinea pig, 5-hydroxytryptamine spasmogen, three logarithmic cumulative intravenous doses; read-out: ED50 5HT
Protocol: (§1) The compounds of this invention are useful as bronchodilators for the treatment of asthma and chronic bronchitis. Bronchodilator activity is determined in guinea pigs against bronchospasms elicited by intravenous injections of 5-hydroxytryptamine, histamine or acetylcholine by the Konzett procedure. [See J. Lulling, P. Lievens, F. El Sayed and J. Prignot, Arzneimittel-Forschung, 18, 995 (1968).]
(§2) In Table which follows bronchodilator activity for representative compounds of this invention against one or more of three spasmogenic agents is expressed as an ED50 determined from the results obtained with three logarithmic cummulative intravenous doses. In this assay, these compounds of this invention provide an effect of longer duration than does natural l-PGE1 or l-PGE2.

[2] = tested on: bronchospasms elicited by histamine; test: Bronchodilator activity against bronchospasm elicited by intravenous histamine, Konzett procedure; conditions: Cavia porcellus; guinea pig, histamine spasmogen, three logarithmic cumulative intravenous doses
Protocol: as §1, §2

[3] = tested on: bronchospasms elicited by acetylcholine; test: Bronchodilator activity against bronchospasm elicited by intravenous acetylcholine, Konzett procedure; conditions: Cavia porcellus; guinea pig, acetylcholine spasmogen, three logarithmic cumulative intravenous doses
Protocol: as §1, §2

Row | Compound | ED50 [1] [mg/kg] | ED50 [2] [mg/kg] | ED50 [3] [mg/kg]
1 | C=CC(O)(C/C=C/[C@@H]1[C@H]2CC(CCCCC(=O)OC)O[C@H]2C[C@H]1O)CCCC (relative stereo) [dl 11α,16-Dihydroxy-6,9α-epoxy-16-vinyl-13-trans-prostenoic acid methyl ester] | 0.0367 | 0.0254 | 0.0491
2 | CCCCC(C)(O)C/C=C/[C@@H]1[C@H]2CC(CCCCC(=O)OC)O[C@H]2C[C@H]1O (relative stereo) [dl 11α,16-Dihydroxy-6,9α-epoxy-16-methyl-13-trans-prostenoic acid methyl ester] | 0.0925 | 0.111 | 0.146
3 | C=CC(O)(C/C=C/[C@@H]1[C@H]2CC(CCCCC(=O)CO)O[C@H]2C[C@H]1O)CCCC (relative stereo) [11a, 16-Dihydroxy-6,9a (epoxy)-1-hydroxymethyl-1-oxo-16-vinyl-13-trans-prostene] | 0.0276 | 0.00146 | 0.0032
4 | CCCCC(C)(O)C/C=C/[C@@H]1[C@H]2CC(C(I)CCCC(=O)OC)O[C@H]2C[C@H]1O (relative stereo) [dl 11α,16-Dihydroxy-6,9α-epoxy-5-iodo-16-methyl-13-trans-prostenoic acid methyl ester] | 0.004 | 0.0069 | 0.0065
